Assay results from patent US8105604B2, “WT1 modified peptide” (International Institute of Cancer Immunology, Inc., priority 2001, dated 2012).
Like-named read-outs stand apart in the source and are kept apart here. Residues, ends and D or L forms follow the SMILES beside them. No end group written: not given here.

Legend:
[1] = system: peripheral blood mononuclear cells from HLA-A*2402-positive donors; assay: Stimulation of peripheral blood mononuclear cells with peptide; status of the resulting cells; assay type: cell-based, human
Experimental: Peripheral blood mononuclear cells were isolated from HLA-A*2402-positive donors and distributed among the wells of a 24-well plate at 2×10^6 cells/well followed by the addition of WT1 wild peptide or WT1 modified peptide to a concentration of 20 μM and culturing for 1 week. The medium used at this time consisted of 45% RPMI, 45% AIV, 10% FCS 1× non-essential amino acids and SM/PCG. Following the aforementioned culturing, the cells were adjusted to 2×10^6 cells/well and used as responder cells.
On the other hand, other peripheral blood mononuclear cells were similarly isolated from the same HLA-A*2402-positive donors and then peptide-pulsed by culturing for 4 days with one of the aforementioned peptides at 20 μM. After then irradiating at 30 Gy, the cells were adjusted to 4×10^6 cells/well and used as stimulator cells.
The responder cells and stimulator cells prepared in the manner described above were then mixed and then cultured for 1 week following the addition of IL-2 at 50 U/ml.

C1R2402 cells = assay: Killing assay (51Cr release) by peptide-stimulated effector cells on peptide-pulsed C1R2402 target cells; assay type: cell-based
Text: FIG. 1 is a graph showing the cell killing effects (specific cytolytic activity) on C1R2402 target cells (T), either pulsed or not pulsed with peptide, by effecter cells (E) stimulated with WT1 wild peptide (Sequence ID No. 2) or the WT1 modified peptide of the present invention (Sequence ID No. 3). In the graph, the black circles indicate the cytolytic effect on C1R2402 target cells pulsed with wild peptide by effecter cells stimulated with WT1 modified peptide, the black squares indicate the cytolytic effect on […] target cells pulsed with wild peptide by effecter cells stimulated with WT1 wild peptide, the white circles indicate the cytolytic effect on C1R2402 target cells not pulsed with wild peptide by effecter cells stimulated with WT1 modified peptide, and the white squares indicate the cytolytic effect on C1R2402 target cells not pulsed with wild peptide by effecter cells stimulated with WT1 wild peptide.
FIG. 3 is a graph showing the cell killing effects (specific cytolytic activity) on C1R2402 target cells, either pulsed or not pulsed with peptide, by effecter cells stimulated with WT1 wild peptide or the WT1 modified peptide of the present invention. […]

[2] = system: leukemia cells from AML patients (WT1+/A*2402+); assay: 51Cr release cell killing assay on leukemia cells endogenously expressing WT1 antigen; assay type: cell-based, human; details: FIG. 2, E:T 20:1, 4 hours, AML patient cells WT1+/-
Experimental: The cell killing activity of effector cells stimulated with WT1 wild peptide or WT1 modified peptide on leukemia cells that endogenously express WT1 antigen was tested according to the ^51Cr release method.

[3] = system: RERF-LCAI, LC1sq, 11-18 and LK87 lung cancer cells; assay: 51Cr release cytotoxicity assay on lung cancer cell lines; assay type: cell-based; details: FIG. 4; E:T 20:1, 4 hours
Experimental: The cytotoxic activity of effector cells stimulated with WT1 wild peptide or WT1 modified peptide was tested on a cancer cell line associated with lung cancer that endogenously expresses WT1 antigen (target cells) using the ^51Cr release method.

[4] = system: C1R2402 cells pulsed with WT1 wild peptide; assay: Blocking assay using antibody (51Cr release); assay type: cell-based; details: FIG. 5; E:T 20:1, 4 hours; anti-HLA class I, anti-HLA class II, anti-CD8 antibody
Text: The antibodies used consisted of anti-HLA class I antibody, anti-HLA class II antibody and anti-CD8 antibody.

HLA-A*2402 [5] = biological target: T1, HLA-A*2402 (Homo sapiens, UniProt P04439, D101N/D140Y/D185E/E176V/E190D/F33S/G103R/G107R/I119L/I121M/I306V/K335N/L105A/L180Q/L300P/N151K/N90K/Q86E/Q94H/R106L/R138H/R89G/T104I/T345S/V100E/W191G/Y123F); assay: Binding affinity to HLA-A*2402 on acid-treated C1RA2402 cells (flow cytometry)
Experimental: After washing the cells with the medium, they were suspended at a concentration of 2×10^6 cells/ml in DMEM medium containing 200 nM β2-microglobulin (Sigma) and 0.5% bovine serum albumin. 15 μl of the cell suspension were mixed with 50 μl of the medium comprising various concentrations of WT1 peptide followed by incubating for 4 hours at room temperature. After washing the cells, they were stained with monoclonal antibody to HLA-A24 labeled with FITC (clone name: 7A12), and the amount of HLA-A24 expressed was analyzed with a flow cytometer FACS system.

HLA-A*2402 [6] = biological target: T1, HLA-A*2402; details: reported in J. Immunol., 154, 5994, 1995; cited from earlier work
[7] = resulting cells after stimulation with 20 μM peptide and IL-2 50 U/ml

| Compound | No. of cells ([1]; PBMC stimulated with 20 μM peptide, responder plus stimulator cells cultured 1 week with IL-2 50 U/ml) | CD4 [1, 7] | CD8 [1, 7] | cell killing activity (cell lysis) of peptide-stimulated effector cells (C1R2402 cells; Example 1, FIG. 1, E:T ratio 1, 5, 20, C1R2402 target cells pulsed or not pulsed with peptide) | cytotoxic activity of peptide-stimulated effector cells (C1R2402 cells; Example 3, FIG. 3, effector cells from different healthy HLA-A*2402-positive donors) | cytotoxic activity of peptide-stimulated effector cells on leukemia cells [2] | cytotoxic activity of peptide-stimulated effector cells on lung cancer cell lines [3] | blocking of cytotoxic activity of peptide-stimulated effector cells by antibodies [4] | binding affinity for HLA-A*2402 (comparison) (HLA-A*2402 [5]) | Kd (HLA-A*2402 [5]; calculated using pmel 15 antigen peptide as standard, 4 hours at room temperature, read-out: Dissociation constant Kd) | Kd (HLA-A*2402 [5]) | binding to HLA-A*2402 (HLA-A*2402 [6]) |
| --- | --- | --- | --- | --- | --- | --- | --- | --- | --- | --- | --- | --- |
| CSCC[C@H](NC(=O)[C@H](CCC(N)=O)NC(=O)[C@H](CC(N)=O)NC(=O)[C@H](Cc1c[nH]c2ccccc12)NC(=O)[C@@H](NC(=O)[C@H](Cc1ccc(O)cc1)NC(=O)[C@@H](N)CS)[C@@H](C)O)C(=O)N[C@@H](CC(N)=O)C(=O)N[C@@H](CC(C)C)C(=O)O [WT1 modified peptide, Cys Tyr Thr Trp Asn Gln Met Asn Leu] (H-CYTWNQMNL-OH; N-terminus and C-terminus assumed) | 3.0 × 10^6/well | 18% | 38% | more potent cell killing activity than cells stimulated with WT1 wild peptide | more potent cytotoxic activity than cells stimulated with WT1 wild peptide | the level of that activity was higher | the level of that activity was higher | blocked by anti-HLA class I antibody and anti-CD8 antibody | stronger binding affinity for HLA-A*2402 than the WT1 wild peptide | 0.64 µM |  |  |
| CSCC[C@H](NC(=O)[C@H](CCC(N)=O)NC(=O)[C@H](CC(N)=O)NC(=O)[C@H](Cc1c[nH]c2ccccc12)NC(=O)[C@@H](NC(=O)[C@H](CCSC)NC(=O)[C@@H](N)CS)[C@@H](C)O)C(=O)N[C@@H](CC(N)=O)C(=O)N[C@@H](CC(C)C)C(=O)O [WT1 wild peptide, Cys Met Thr Trp Asn Gln Met Asn Leu, reference compound] (H-CMTWNQMNL-OH) |  |  |  |  |  | demonstrated cytotoxic activity on the WT1+/A*2402 cells | demonstrated cytotoxic activity only on the WT1+/A*2402+ cells | blocked by anti-HLA class I antibody and anti-CD8 antibody |  |  | 18.2 µM |  |
| AYGLDFYIL [melanoma antigen peptide used as standard for the Kd calculation] |  |  |  |  |  |  |  |  |  |  |  | reported to bind to HLA-A*2402 |
